Assay results taken from patent US20230085307A1, “PYRIDAZINONE COMPOUND AND HERBICIDE” (NISSAN CHEMICAL CORPORATION, priority 2019, published 2023).

What was measured:
blackgrass [1] = assay: Test Example 4: herbicidal effect by soil treatment (Table 19, symbol J); format: in vivo, blackgrass (Alopecurus myosuroides); conditions: amount of applied herbicide 320 g/ha
How it was run: (§1)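 Scoring uses the grading scale of an earlier test, three weeks post-application. Treatment consists of spraying a diluted emulsion formulation across the surface of sterilized diluvial soil in which seeds are buried near 1.5 cm deep; boxes are kept in a greenhouse between 25° C. and 30° C.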

southern crabgrass [2] = assay: Test Example 5: herbicidal effect by foliage application, plastic box (Table 20, symbol F); format: in vivo, southern crabgrass (Digitaria ciliaris); conditions: foliage application, AAH 320 g/ha, evaluated three weeks after application
How it was run: (§2)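 Post-emergence foliar test in sterilized diluvial soil. Compound applied as water-diluted emulsion at a predetermined rate to 14-day-old plants; evaluation at three weeks.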

late watergrass = assay: Test Example 1: herbicidal activity, application before weed generation under submerged conditions (Table 16, symbol A); format: in vivo, late watergrass (Echinochloa oryzicola); conditions: 320 g/ha applied herbicide
How it was run: (§3)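 Emulsion formulation, water-diluted to set dose, was put onto the flooded surface (4 cm depth, alluvial soil) the same day weeds were sown and 2.5-leaf rice transplanted. After 3 weeks at 25-30 °C under glass, each species was rated 0 (≤5% kill) to 5 (≥90% kill).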

redroot pigweed [3] = assay: Test Example 5: herbicidal effect by foliage application, plastic box (Table 20, symbol N); format: in vivo, redroot pigweed (Amaranthus retroflexus); conditions: foliage application, AAH 320 g/ha, evaluated three weeks after application
How it was run: as §2

barnyard grass [4] = assay: Test Example 5: herbicidal effect by foliage application, plastic box (Table 20, symbol H); format: in vivo, barnyard grass (Echinochloa crus-galli); conditions: foliage application, AAH 320 g/ha, evaluated three weeks after application
How it was run: as §2

velvetleaf [5] = assay: Test Example 5: herbicidal effect by foliage application, plastic box (Table 20, symbol M); format: in vivo, velvetleaf (Abutilon theophrasti); conditions: foliage application, AAH 320 g/ha, evaluated three weeks after application
How it was run: as §2

barnyard grass [6] = assay: Test Example 3: herbicidal effect by foliage application, Wagner pot (Table 18, symbol H); format: in vivo, barnyard grass (Echinochloa crus-galli); conditions: amount of applied herbicide 320 g/ha
How it was run: (§4)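 Plants were sown in alluvial soil held under 0.1–0.5 cm standing water and grown 14 days in a greenhouse at 25–30 °C. An emulsifiable formulation, water-diluted to the set dose, was then sprayed onto the foliage, and effects were scored three weeks later using previously defined criteria.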

Italian ryegrass [7] = assay: Test Example 5: herbicidal effect by foliage application, plastic box (Table 20, symbol K); format: in vivo, Italian ryegrass (Lolium multiflorum); conditions: foliage application, AAH 320 g/ha, evaluated three weeks after application
How it was run: as §2

Japanese bulrush = assay: Test Example 1: herbicidal activity, application before weed generation under submerged conditions (Table 16, symbol B); format: in vivo, Japanese bulrush (Schoenoplectus juncoides); conditions: 320 g/ha applied herbicide
How it was run: as §3

Chinese sprangletop = assay: Test Example 3: herbicidal effect by foliage application, Wagner pot (Table 18, symbol D); format: in vivo, chinese sprangletop (Leptochloa chinensis); conditions: amount of applied herbicide 320 g/ha
How it was run: as §4

southern crabgrass [8] = assay: Test Example 4: herbicidal effect by soil treatment (Table 19, symbol F); format: in vivo, southern crabgrass (Digitaria ciliaris); conditions: amount of applied herbicide 320 g/ha
How it was run: as §1

oval-leafed pondweed = assay: Test Example 1: herbicidal activity, application before weed generation under submerged conditions (Table 16, symbol C); format: in vivo, oval-leafed pondweed (Monochoria vaginalis); conditions: 320 g/ha applied herbicide
How it was run: as §3

chickweed [9] = assay: Test Example 5: herbicidal effect by foliage application, plastic box (Table 20, symbol P); format: in vivo, common chickweed (Stellaria media); conditions: foliage application, AAH 320 g/ha, evaluated three weeks after application
How it was run: as §2

windgrass [10] = assay: Test Example 4: herbicidal effect by soil treatment (Table 19, symbol L); format: in vivo, windgrass (Apera spica-venti); conditions: amount of applied herbicide 320 g/ha
How it was run: as §1

redroot pigweed [11] = assay: Test Example 4: herbicidal effect by soil treatment (Table 19, symbol N); format: in vivo, redroot pigweed (Amaranthus retroflexus); conditions: amount of applied herbicide 320 g/ha
How it was run: as §1

green foxtail [12] = assay: Test Example 5: herbicidal effect by foliage application, plastic box (Table 20, symbol G); format: in vivo, green foxtail (Setaria viridis); conditions: foliage application, AAH 320 g/ha, evaluated three weeks after application
How it was run: as §2

barnyard grass [13] = assay: Test Example 4: herbicidal effect by soil treatment (Table 19, symbol H); format: in vivo, barnyard grass (Echinochloa crus-galli); conditions: amount of applied herbicide 320 g/ha
How it was run: as §1

blackgrass [14] = assay: Test Example 5: herbicidal effect by foliage application, plastic box (Table 20, symbol J); format: in vivo, blackgrass (Alopecurus myosuroides); conditions: foliage application, AAH 320 g/ha, evaluated three weeks after application
How it was run: as §2

windgrass [15] = assay: Test Example 5: herbicidal effect by foliage application, plastic box (Table 20, symbol L); format: in vivo, windgrass (Apera spica-venti); conditions: foliage application, AAH 320 g/ha, evaluated three weeks after application
How it was run: as §2

persian speedwell [16] = assay: Test Example 5: herbicidal effect by foliage application, plastic box (Table 20, symbol R); format: in vivo, Persian speedwell (Veronica persica); conditions: foliage application, AAH 320 g/ha, evaluated three weeks after application
How it was run: as §2

green foxtail [17] = assay: Test Example 4: herbicidal effect by soil treatment (Table 19, symbol G); format: in vivo, green foxtail (Setaria viridis); conditions: amount of applied herbicide 320 g/ha
How it was run: as §1

lambsquarters [18] = assay: Test Example 4: herbicidal effect by soil treatment (Table 19, symbol O); format: in vivo, lambsquarters (Chenopodium album); conditions: amount of applied herbicide 320 g/ha
How it was run: as §1

persian speedwell [19] = assay: Test Example 4: herbicidal effect by soil treatment (Table 19, symbol R); format: in vivo, Persian speedwell (Veronica persica); conditions: amount of applied herbicide 320 g/ha
How it was run: as §1

wild oat [20] = assay: Test Example 4: herbicidal effect by soil treatment (Table 19, symbol I); format: in vivo, wild oat (Avena fatua); conditions: amount of applied herbicide 320 g/ha
How it was run: as §1

rice flat sedge = assay: Test Example 3: herbicidal effect by foliage application, Wagner pot (Table 18, symbol E); format: in vivo, rice flat sedge (Cyperus iria); conditions: amount of applied herbicide 320 g/ha
How it was run: as §4

lambsquarters [21] = assay: Test Example 5: herbicidal effect by foliage application, plastic box (Table 20, symbol O); format: in vivo, lambsquarters (Chenopodium album); conditions: foliage application, AAH 320 g/ha, evaluated three weeks after application
How it was run: as §2

chickweed [22] = assay: Test Example 4: herbicidal effect by soil treatment (Table 19, symbol P); format: in vivo, common chickweed (Stellaria media); conditions: amount of applied herbicide 320 g/ha
How it was run: as §1

velvetleaf [23] = assay: Test Example 4: herbicidal effect by soil treatment (Table 19, symbol M); format: in vivo, velvetleaf (Abutilon theophrasti); conditions: amount of applied herbicide 320 g/ha
How it was run: as §1

wild oat [24] = assay: Test Example 5: herbicidal effect by foliage application, plastic box (Table 20, symbol I); format: in vivo, wild oat (Avena fatua); conditions: foliage application, AAH 320 g/ha, evaluated three weeks after application
How it was run: as §2

Italian ryegrass [25] = assay: Test Example 4: herbicidal effect by soil treatment (Table 19, symbol K); format: in vivo, Italian ryegrass (Lolium multiflorum); conditions: amount of applied herbicide 320 g/ha
How it was run: as §1

| Structure (SMILES) | herbicidal effect on J: blackgrass (blackgrass [1]) | F: southern crabgrass, herbicidal effect (criteria 0-5) (southern crabgrass [2]) | Herbicidal effect on A: late watergrass (grade 0-5) (late watergrass) | N: redroot pigweed, herbicidal effect (criteria 0-5) (redroot pigweed [3]) | H: barnyard grass, herbicidal effect (criteria 0-5) (barnyard grass [4]) | M: velvetleaf, herbicidal effect (criteria 0-5) (velvetleaf [5]) | herbicidal effect on H: barnyard grass (barnyard grass [6]) | K: Italian ryegrass, herbicidal effect (criteria 0-5) (Italian ryegrass [7]) | Herbicidal effect on B: Japanese bulrush (grade 0-5) (Japanese bulrush) | herbicidal effect on D: Chinese sprangletop (Chinese sprangletop) | herbicidal effect on F: southern crabgrass (southern crabgrass [8]) | Herbicidal effect on C: oval-leafed pondweed (grade 0-5) (oval-leafed pondweed) | P: chickweed, herbicidal effect (criteria 0-5) (chickweed [9]) | herbicidal effect on L: windgrass (windgrass [10]) | herbicidal effect on N: redroot pigweed (redroot pigweed [11]) | G: green foxtail, herbicidal effect (criteria 0-5) (green foxtail [12]) | herbicidal effect on H: barnyard grass (barnyard grass [13]) | J: blackgrass, herbicidal effect (criteria 0-5) (blackgrass [14]) | L: windgrass, herbicidal effect (criteria 0-5) (windgrass [15]) | R: persian speedwell, herbicidal effect (criteria 0-5) (persian speedwell [16]) | further results |
| --- | --- | --- | --- | --- | --- | --- | --- | --- | --- | --- | --- | --- | --- | --- | --- | --- | --- | --- | --- | --- | --- |
| Cc1nn(C)c(=O)c(-c2c(-c3ccc(CSC(C)C)cc3)sc3ccc(F)cc23)c1O [2-321] | 0 (Herbicidal rate of 5% or less (almost no effect)) | 5 (Herbicidal rate of 90% or more (almost completely withered)) | 3 (Herbicidal rate of 40% or more and less than 70%) | 5 (Herbicidal rate of 90% or more (almost completely withered)) | 4 (Herbicidal rate of 70% or more and less than 90%) | 5 (Herbicidal rate of 90% or more (almost completely withered)) | 5 (Herbicidal rate of 90% or more (almost completely withered)) | 4 (Herbicidal rate of 70% or more and less than 90%) | 3 (Herbicidal rate of 40% or more and less than 70%) | 3 (Herbicidal rate of 40% or more and less than 70%) | 3 (Herbicidal rate of 40% or more and less than 70%) | 0 (Herbicidal rate of 5% or less (almost no effect)) | 5 (Herbicidal rate of 90% or more (almost completely withered)) | 0 (Herbicidal rate of 5% or less (almost no effect)) | 4 (Herbicidal rate of 70% or more and less than 90%) | 5 (Herbicidal rate of 90% or more (almost completely withered)) | 3 (Herbicidal rate of 40% or more and less than 70%) | 4 (Herbicidal rate of 70% or more and less than 90%) | 5 (Herbicidal rate of 90% or more (almost completely withered)) | 5 (Herbicidal rate of 90% or more (almost completely withered)) | herbicidal effect on G: green foxtail (green foxtail [17]): 4 (Herbicidal rate of 70% or more and less than 90%); herbicidal effect on O: lambsquarters (lambsquarters [18]): 3 (Herbicidal rate of 40% or more and less than 70%); herbicidal effect on R: persian speedwell (persian speedwell [19]): 5 (Herbicidal rate of 90% or more (almost completely withered)); herbicidal effect on I: wild oat (wild oat [20]): 0 (Herbicidal rate of 5% or less (almost no effect)); herbicidal effect on E: rice flat sedge (rice flat sedge): 5 (Herbicidal rate of 90% or more (almost completely withered)); O: lambsquarters, herbicidal effect (criteria 0-5) (lambsquarters [21]): 5 (Herbicidal rate of 90% or more (almost completely withered)); herbicidal effect on P: chickweed (chickweed [22]): 0 (Herbicidal rate of 5% or less (almost no effect)); herbicidal effect on M: velvetleaf (velvetleaf [23]): 1 (Herbicidal rate of 5% or more and less than 20%); I: wild oat, herbicidal effect (criteria 0-5) (wild oat [24]): 3 (Herbicidal rate of 40% or more and less than 70%); herbicidal effect on K: Italian ryegrass (Italian ryegrass [25]): 0 (Herbicidal rate of 5% or less (almost no effect)) |
| Cc1nn(C)c(=O)c(-c2c(-c3ccc(F)cc3F)sc3ccc(F)cc23)c1O [2-342] | 3 (Herbicidal rate of 40% or more and less than 70%) | 5 (Herbicidal rate of 90% or more (almost completely withered)) | 2 (Herbicidal rate of 20% or more and less than 40%) | 5 (Herbicidal rate of 90% or more (almost completely withered)) | 5 (Herbicidal rate of 90% or more (almost completely withered)) | 5 (Herbicidal rate of 90% or more (almost completely withered)) | 5 (Herbicidal rate of 90% or more (almost completely withered)) | 5 (Herbicidal rate of 90% or more (almost completely withered)) | 3 (Herbicidal rate of 40% or more and less than 70%) | 5 (Herbicidal rate of 90% or more (almost completely withered)) | 3 (Herbicidal rate of 40% or more and less than 70%) | 0 (Herbicidal rate of 5% or less (almost no effect)) | 5 (Herbicidal rate of 90% or more (almost completely withered)) | 3 (Herbicidal rate of 40% or more and less than 70%) | 4 (Herbicidal rate of 70% or more and less than 90%) | 5 (Herbicidal rate of 90% or more (almost completely withered)) | 4 (Herbicidal rate of 70% or more and less than 90%) | 4 (Herbicidal rate of 70% or more and less than 90%) | 5 (Herbicidal rate of 90% or more (almost completely withered)) | 5 (Herbicidal rate of 90% or more (almost completely withered)) | herbicidal effect on G: green foxtail (green foxtail [17]): 4 (Herbicidal rate of 70% or more and less than 90%); herbicidal effect on O: lambsquarters (lambsquarters [18]): 4 (Herbicidal rate of 70% or more and less than 90%); herbicidal effect on R: persian speedwell (persian speedwell [19]): 3 (Herbicidal rate of 40% or more and less than 70%); herbicidal effect on I: wild oat (wild oat [20]): 0 (Herbicidal rate of 5% or less (almost no effect)); herbicidal effect on E: rice flat sedge (rice flat sedge): 5 (Herbicidal rate of 90% or more (almost completely withered)); O: lambsquarters, herbicidal effect (criteria 0-5) (lambsquarters [21]): 5 (Herbicidal rate of 90% or more (almost completely withered)); herbicidal effect on P: chickweed (chickweed [22]): 3 (Herbicidal rate of 40% or more and less than 70%); herbicidal effect on M: velvetleaf (velvetleaf [23]): 3 (Herbicidal rate of 40% or more and less than 70%); I: wild oat, herbicidal effect (criteria 0-5) (wild oat [24]): 4 (Herbicidal rate of 70% or more and less than 90%); herbicidal effect on K: Italian ryegrass (Italian ryegrass [25]): 5 (Herbicidal rate of 90% or more (almost completely withered)) |
